{"source": "ChEMBL document CHEMBL1275588", "about": "“Role of pfmdr1 amplification and expression in induction of resistance to artemisinin derivatives in Plasmodium falciparum” (Antimicrob Agents Chemother, 2010)", "key": {"[1]": {"test_system": "Plasmodium falciparum", "assay": "Antimalarial activity against Plasmodium falciparum TM91C235 harboring 2 copy number of pfmdr1 gene organism selected at 10 to 50 ng/ml compound concentration", "type": "functional, organism-based"}, "[2]": {"test_system": "Plasmodium falciparum", "assay": "Antimalarial activity against Plasmodium falciparum W2 harboring 1 copy number of pfmdr1 gene organism selected at 10 to 30 ng/ml compound concentration", "type": "functional, organism-based"}, "[3]": {"test_system": "Plasmodium falciparum", "assay": "Antimalarial activity against Plasmodium falciparum W2 assessed as inhibition of [3H]hypoxanthine uptake organism selected on 80 ng/mL compound concentration", "type": "functional, organism-based"}, "[4]": {"test_system": "Plasmodium falciparum", "assay": "Antimalarial activity against Plasmodium falciparum D6 assessed as inhibition of [3H]hypoxanthine uptake organism selected on 50 ng/ml compound concentration", "type": "functional, organism-based"}, "[5]": {"test_system": "Plasmodium falciparum", "assay": "Antimalarial activity against Plasmodium falciparum W2 assessed as inhibition of [3H]hypoxanthine uptake organism selected on 50 ng/mL compound concentration", "type": "functional, organism-based"}, "[6]": {"test_system": "Plasmodium falciparum", "assay": "Antimalarial activity against Plasmodium falciparum TM91C235 harboring 3 copy number of pfmdr1 gene organism selected at 80 ng/ml compound concentration", "type": "functional, organism-based"}, "[7]": {"test_system": "Plasmodium falciparum", "assay": "Antimalarial activity against Plasmodium falciparum TM91C235 assessed as level of pfmdr1 mRNA expression organism selected on 80 ng/ml of compound by quantitative real-time RT-PCR with respect to wild type", "type": "functional"}, "[8]": {"test_system": "Plasmodium falciparum", "assay": "Antimalarial activity against Plasmodium falciparum D6 harboring 1 copy number of pfmdr1 gene organism selected at up to 80 ng/ml compound concentration", "type": "functional, organism-based"}, "[9]": {"test_system": "Plasmodium falciparum", "assay": "Antimalarial activity against Plasmodium falciparum TM91C235 assessed as inhibition of [3H]hypoxanthine uptake organism selected on 50 ng/mL compound concentration", "type": "functional, organism-based"}, "[10]": {"test_system": "Plasmodium falciparum", "assay": "Antimalarial activity against Plasmodium falciparum D6 assessed as level of pfmdr1 mRNA expression organism selected on 80 ng/ml of compound by quantitative real-time RT-PCR with respect to wild type", "type": "functional, organism-based"}, "[11]": {"test_system": "Plasmodium falciparum", "assay": "Antimalarial activity against Plasmodium falciparum D6 assessed as inhibition of [3H]hypoxanthine uptake", "type": "functional, organism-based"}, "[12]": {"test_system": "Plasmodium falciparum", "assay": "Antimalarial activity against Plasmodium falciparum W2 organism selected on up to 80 ng/ml compound concentration", "type": "functional, organism-based"}, "[13]": {"test_system": "Plasmodium falciparum", "assay": "Antimalarial activity against Plasmodium falciparum W2 harboring 3 copy number of pfmdr1 gene organism selected at 80 ng/ml compound concentration", "type": "functional, organism-based"}, "[14]": {"test_system": "Plasmodium falciparum", "assay": "Antimalarial activity against Plasmodium falciparum D6 organism selected on 30 ng/ml compound concentration", "type": "functional, organism-based"}, "[15]": {"test_system": "Plasmodium falciparum", "assay": "Antimalarial activity against Plasmodium falciparum W2 assessed as level of pfmdr1 mRNA expression organism selected on 80 ng/ml of compound by quantitative real-time RT-PCR with respect to wild type", "type": "functional"}, "[16]": {"test_system": "Plasmodium falciparum", "assay": "Antimalarial activity against Plasmodium falciparum W2 harboring 3 copy number of pfmdr1 gene organism selected at 120 ng/ml compound concentration", "type": "functional, organism-based"}, "[17]": {"test_system": "Plasmodium falciparum", "assay": "Antimalarial activity against Plasmodium falciparum TM91C235 assessed as inhibition of [3H]hypoxanthine uptake", "type": "functional, organism-based"}, "[18]": {"test_system": "Plasmodium falciparum", "assay": "Antimalarial activity against Plasmodium falciparum D6 assessed as inhibition of [3H]hypoxanthine uptake organism selected on 80 ng/ml compound concentration", "type": "functional, organism-based"}, "[19]": {"test_system": "Plasmodium falciparum", "assay": "Antimalarial activity against Plasmodium falciparum W2 assessed as inhibition of [3H]hypoxanthine uptake", "type": "functional, organism-based"}, "[20]": {"test_system": "Plasmodium falciparum", "assay": "Antimalarial activity against Plasmodium falciparum W2 harboring 3 copy number of pfmdr1 gene organism selected at 50 ng/ml compound concentration", "type": "functional, organism-based"}, "[21]": {"test_system": "Plasmodium falciparum", "assay": "Antimalarial activity against Plasmodium falciparum W2 organism selected on 40 ng/ml compound concentration", "type": "functional, organism-based"}, "[22]": {"test_system": "Plasmodium falciparum", "assay": "Antimalarial activity against Plasmodium falciparum TM91C235 selected on 30 ng/ml compound concentration", "type": "functional, organism-based"}, "[23]": {"test_system": "Plasmodium falciparum", "assay": "Antimalarial activity against Plasmodium falciparum TM91C235 assessed as inhibition of [3H]hypoxanthine uptake organism selected on 80 ng/mL compound concentration", "type": "functional, organism-based"}, "[24]": {"test_system": "Plasmodium falciparum", "assay": "Antimalarial activity against Plasmodium falciparum W2 harboring 2 copy number of pfmdr1 gene organism selected at 200 ng/ml compound concentration", "type": "functional, organism-based"}, "[25]": {"test_system": "Plasmodium falciparum", "assay": "Antimalarial activity against Plasmodium falciparum W2 assessed as level of pfmdr1 mRNA expression organism selected on 40 ng/ml of compound by quantitative real-time RT-PCR with respect to wild type", "type": "functional"}, "[26]": {"test_system": "Plasmodium falciparum", "assay": "Antimalarial activity against Plasmodium falciparum W2 harboring 2 copy number of pfmdr1 gene organism selected at 40 ng/ml compound concentration", "type": "functional, organism-based"}}, "note": "Calls of active or inactive are those of the source. The rule behind the calls is not given here."}
{"smiles": "C[C@@H]1[C@H](OCc2ccc(C(=O)O)cc2)O[C@@H]2O[C@@]3(C)CC[C@@H]4[C@@H](C)CC[C@@H]1[C@]24OO3", "note": "[ARTELINIC ACID]", "values": [{"measurement": "Activity", "setting": "[1]", "result": "inactive"}, {"measurement": "Activity", "setting": "[2]", "result": "Active"}, {"measurement": "IC50", "setting": "[3]", "result": 22.8, "unit": "nM"}, {"measurement": "IC90", "setting": "[3]", "result": 56.8, "unit": "nM"}, {"measurement": "IC50", "setting": "[4]", "result": 34, "unit": "nM"}, {"measurement": "IC90", "setting": "[4]", "result": 81.3, "unit": "nM"}, {"measurement": "IC50", "setting": "[5]", "result": 23.3, "unit": "nM"}, {"measurement": "IC90", "setting": "[5]", "result": 51.3, "unit": "nM"}, {"measurement": "Activity", "setting": "[6]", "result": "Active"}, {"measurement": "fold change (FC)", "setting": "[7]", "result": 2.1}, {"measurement": "Activity", "setting": "[8]", "result": "inactive"}, {"measurement": "IC50", "setting": "[9]", "result": 33.7, "unit": "nM"}, {"measurement": "IC90", "setting": "[9]", "result": 53.5, "unit": "nM"}, {"measurement": "Activity", "setting": "[10]", "result": "Active"}, {"measurement": "IC90", "setting": "[11]", "result": 21.8, "unit": "nM"}, {"measurement": "Activity", "setting": "[12]", "result": "inactive"}, {"measurement": "Activity", "setting": "[13]", "result": "inactive"}, {"measurement": "Activity", "setting": "[14]", "result": "inactive"}, {"measurement": "fold change (FC)", "setting": "[15]", "result": 3}, {"measurement": "Activity", "setting": "[16]", "result": "Active"}, {"measurement": "IC50", "setting": "[17]", "result": 11.1, "unit": "nM"}, {"measurement": "IC90", "setting": "[17]", "result": 23, "unit": "nM"}, {"measurement": "IC50", "setting": "[18]", "result": 23.6, "unit": "nM"}, {"measurement": "IC90", "setting": "[18]", "result": 75.9, "unit": "nM"}, {"measurement": "IC50", "setting": "[19]", "result": 4.37, "unit": "nM"}, {"measurement": "IC90", "setting": "[19]", "result": 7.45, "unit": "nM"}, {"measurement": "Activity", "setting": "[20]", "result": "inactive"}, {"measurement": "Activity", "setting": "[21]", "result": "inactive"}, {"measurement": "Activity", "setting": "[22]", "result": "inactive"}, {"measurement": "IC50", "setting": "[23]", "result": 24.6, "unit": "nM"}, {"measurement": "IC90", "setting": "[23]", "result": 75.9, "unit": "nM"}]}
{"smiles": "C[C@@H]1CC[C@H]2[C@@H](C)C(=O)O[C@@H]3O[C@@]4(C)CC[C@@H]1[C@]32OO4", "note": "[ARTEMISININ]", "values": [{"measurement": "Activity", "setting": "[24]", "result": "inactive"}, {"measurement": "fold change (FC)", "setting": "[25]", "result": 2.2}, {"measurement": "Activity", "setting": "[26]", "result": "inactive"}]}
